From patent US11554138B2, “Bismuth(III) complexes as adjuvants in the treatment of cancer using platinum-based chemotherapy” (THE UNIVERSITY OF HONG KONG, priority 2015, dated 2023)

Columns and labels:
testicular cancer = conditions: cited from earlier work
[1] = system: MIHA (human hepatocyte cell); experiment: XTT cell proliferation assay, protection against cisplatin cytotoxicity, MIHA; type: cell-based
Experimental: MIHA cells treated with culture medium served as a control. The respective survival rate was measured by cell proliferation kit XTT. All data are in triplicates.
(§1) To evaluate the in vitro protection effect of test bismuth(III) complexes against cisplatin stress, two nontumorigenic normal human cell lines, HK-2 (human kidney proximal tubular cell) and MIHA (human hepatocyte cell) are incorporated herein for cell proliferation kit II XTT assay.
(§2) The XTT assay was carried out according to the manufacturer's instruction (Roche Diagnostics, USA). Typically, 1-2×10^4 cells per well were grown in flat-bottom 96-well plates at 37° C. for an overnight under a humidified atmosphere of 5% CO2. Cells pellets were washed with PBS and treated with bismuth(III) complexes at various concentrations (1-100 μM) for 2 hours prior to the exposure to cisplatin (10 μM and 100 μM for HK-2 and MIHA cell line, respectively) for 2 days. Cells grown under culture medium alone were used as a negative control. After a fixed incubation time, 50 μl of the XTT labeling mixture was added to each well and the cells were incubated for 2 hours. The formation of formazan dyes, produced only by metabolic active cells, was detected spectrophotometrically at 490 nm.

[2] = system: HK-2 (human kidney proximal tubular cell); experiment: XTT cell proliferation assay, protection against cisplatin cytotoxicity, HK-2; type: cell-based
Experimental: HK-2 cells treated with culture medium served as a control. The respective survival rate was measured by cell proliferation kit XTT. All data are in triplicates.
as §1, §2

[3] = system: SKNLP neuroblastoma cells; experiment: Cisplatin anti-tumor activity in SKNLP neuroblastoma tumor-bearing mice
Experimental: 0.2 Million SKNLP neuroblastoma cells transfected with luminescent plasmid were inoculated into the adrenal gland of SCID beige mice. […] Cisplatin (7.5 mg/kg) was i.p. injected at Day 0, Day 7 and Day 14. Tumor growth was monitored by luminescent of the transfected tumor cells.
SKNLP neuroblastoma cells (˜2×10^5 cells) were transfected with luminescent plasmid were inoculated into the adrenal gland of BALB/c nude mice. […] Cisplatin (7.5 mg/kg) was i.p. injected on Day 0, and Day 7. Tumor growth was monitored by luminescent of the transfected tumor cells.
To evaluate whether Bi(III) complexes affect cisplatin's in vivo anti-tumor activity, SKNLP neuroblastoma cells transfected with luminescent plasmid were implanted into mice.

[4] = highly dependent on pH and ionic strength
female BALB/c mice = experiment: Survival of cisplatin-treated mice (cisplatin induced nephrotoxicity); type: in vivo; conditions: 50 mg/kg orally Day -2, -1, 0, 2, 4; cisplatin 30 mg/kg i.p. Day 0; n=8
Experimental: FIG. 5 Provides survival curves of cisplatin-treated mice with pretreatment of Bi-L1, Bi-L12 and BicitZ, respectively, showing the protective role of bimusth(III) complexes on cisplatin induced nephrotoxicity. All bismuth complexes (50 mg/kg) were administered orally on Day −2, Day −1, Day 0, Day 2 and Day 4. Cisplatin (30 mg/kg) was I.P. injected on Day 0. […] (Log-rank (Mantel-Cox) test, ***P=0.0004)

Compound | overall cure rate (testicular cancer) | cells survived after exposure to cisplatin only ([1]; cisplatin 100 μM, 2 days) | cells survived after exposure to cisplatin only ([2]; cisplatin 10 μM, 2 days) | effect on cisplatin's anti-cancer activity in tumor engrafted mice ([3]; SCID beige mice, oral 50 mg/Kg Day -1, 0 and every two days, cisplatin 7.5 mg/kg Day 0, 7, 14) | interference on cisplatin's chemotherapeutic effect ([3]; pretreatment at 100 mg/kg, cisplatin 7.5 mg/Kg, SCID beige tumor-bearing mice) | SKNLP tumor cells metastases in lung and liver (histology) ([3]; same experiments as FIG. 7 and FIG. 8, vs control and cisplatin alone) | solubility of the complex in water [4] | survival rate of cisplatin-treated mice (Kaplan-Meier) (female BALB/c mice) | increase of cell viability when co-treated with cisplatin ([1]; bismuth(III) complex 1-100 μM 2 hours prior to cisplatin 100 μM for 2 days, XTT) | increase of cell viability when co-treated with cisplatin ([2]; bismuth(III) complex 1-100 μM 2 hours prior to cisplatin 10 μM for 2 days, XTT)
N.N.[Cl][Pt][Cl] [cisplatin, cis-[PtCl2(NH3)2], reference compound] | over 90% | Less than 40% | Less than 40% | – | – | – | – | – | – | –
bismuth(III) zinc(II) citrate complex [BicitZ] | – | – | – | negligible effects | no interference | delays SKNLP tumor cells metastases | over 100 mM | higher survival rate | 28.5% | 16.7%
